Assay results as given in PubChem BioAssay AID248 (DTP/NCI, 2004).
Values joined by “and” are separate entries in the source; they are usually repeats but may differ in a detail not shown here. Equal entries are not always repeated. Toxic doses and inconclusive results are not listed. No stated cut-off is given here; in the data, active means T/C of 150% or more; inactive means T/C below 125%.

Tested on: L1210 leukemia ip in BDF1 mice, survival T/C
Test: NCI In Vivo Anticancer Drug Screen. Data for tumor model L1210 Leukemia (intraperitoneal) in B6D2F1 (BDF1) mice
Details: endpoint: mean survival time, higher = longer survival
Outline: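 Value reflects the ratio of survival in compound-treated mice to survival in vehicle-treated controls, with both groups carrying the same transplanted tumor.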

[1] = dose: 100.0 mg/kg/injection, schedule: Q04DX003 (ip), vehicle: Klucel (hydroxypropylcellulose) (HPC)
[2] = dose: 200.0 mg/kg/injection, schedule: Q01DX001 (ip), vehicle: saline
[3] = dose: 200.0 mg/kg/injection, schedule: Q04DX003 (ip), vehicle: Klucel (hydroxypropylcellulose) (HPC)
[4] = dose: 400.0 mg/kg/injection, schedule: Q04DX003 (ip), vehicle: Klucel (hydroxypropylcellulose) (HPC)
[5] = dose: 25.0 mg/kg/injection, schedule: Q04DX002 (ip), vehicle: saline with Tween-80
[6] = dose: 50.0 mg/kg/injection, schedule: Q04DX002 (ip), vehicle: saline with Tween-80
[7] = dose: 100.0 mg/kg/injection, schedule: Q01DX009 (ip), vehicle: saline
[8] = dose: 100.0 mg/kg/injection, schedule: Q04DX003 (ip), vehicle: saline
[9] = dose: 200.0 mg/kg/injection, schedule: Q01DX009 (ip), vehicle: saline
[10] = dose: 200.0 mg/kg/injection, schedule: Q04DX003 (ip), vehicle: saline
[11] = dose: 400.0 mg/kg/injection, schedule: Q01DX009 (ip), vehicle: saline
[12] = dose: 100.0 mg/kg/injection, schedule: Q04DX002 (ip), vehicle: Klucel (hydroxypropylcellulose) (HPC)
[13] = dose: 200.0 mg/kg/injection, schedule: Q04DX002 (ip), vehicle: Klucel (hydroxypropylcellulose) (HPC)
[14] = dose: 400.0 mg/kg/injection, schedule: Q04DX002 (ip), vehicle: Klucel (hydroxypropylcellulose) (HPC)
[15] = dose: 100.0 mg/kg/injection, schedule: Q01DX009 (ip), vehicle: saline with Tween-80
[16] = dose: 200.0 mg/kg/injection, schedule: Q01DX009 (ip), vehicle: saline with Tween-80
[17] = dose: 100.0 mg/kg/injection, schedule: Q04DX002 (ip), vehicle: saline with Tween-80
[18] = dose: 200.0 mg/kg/injection, schedule: Q04DX002 (ip), vehicle: saline with Tween-80
[19] = dose: 400.0 mg/kg/injection, schedule: Q04DX002 (ip), vehicle: saline with Tween-80
[20] = dose: 100.0 mg/kg/injection, schedule: Q04DX003 (ip), vehicle: saline with Tween-80
[21] = dose: 200.0 mg/kg/injection, schedule: Q04DX003 (ip), vehicle: saline with Tween-80
[22] = dose: 400.0 mg/kg/injection, schedule: Q04DX003 (ip), vehicle: saline with Tween-80
[23] = dose: 100.0 mg/kg/injection, schedule: Q01DX001 (ip), vehicle: saline with Tween-80
[24] = dose: 200.0 mg/kg/injection, schedule: Q01DX001 (ip), vehicle: saline with Tween-80
[25] = dose: 400.0 mg/kg/injection, schedule: Q01DX001 (ip), vehicle: saline with Tween-80
[26] = dose: 400.0 mg/kg/injection, schedule: Q01DX009 (ip), vehicle: saline with Tween-80

Measured: T/C

CC1(C)CCC(C)(C)c2c1ccc(O)c2Cc1c(O)ccc2c1C(C)(C)CCC2(C)C
inactive: [1] 96 % of control | [2] 87 % of control | [3] 96 % of control | [4] 94 % of control

c1ccc2cc(B(c3cccc4ccccc34)c3cccc4ccccc34)ccc2c1
inactive: dose: 12.5 mg/kg/injection, schedule: Q04DX002 (ip), vehicle: saline with Tween-80 102 % of control | [5] 94 % of control | [6] 105 % of control

O=c1[nH]cc(-c2ccccc2)c(=O)[nH]1
inactive: [7] 98 % of control | [8] 95 % of control | [9] 104 % of control | [10] 95 % of control | [11] 104 % of control | dose: 400.0 mg/kg/injection, schedule: Q04DX003 (ip), vehicle: saline 101 % of control

CC12CCC(/C(=N/O)C1=O)C2(C)C (centres undefined)
inactive: [12] 106 % of control | [13] 110 % of control | [14] 103 % of control

CC1CC=C(/C=N/NC(N)=O)C(C)O1 (centres undefined)
inactive: dose: 50.0 mg/kg/injection, schedule: Q01DX009 (ip), vehicle: saline with Tween-80 94 % of control | [15] 88 % of control | [16] 94 % of control

CC1([N+](=O)[O-])COP(=O)(N2CC2)OC1 (centres undefined)
inactive: dose: 62.5 mg/kg/injection, schedule: Q01DX Z (ip), vehicle: carboxymethylcellulose (CMC) 87 % of control | dose: 125.0 mg/kg/injection, schedule: Q01DX Z (ip), vehicle: carboxymethylcellulose (CMC) 90 % of control

[Cl][Al]([Cl])[Cl]
inactive: dose: 6.25 mg/kg/injection, schedule: Q01DX009 (ip), vehicle: saline 102 % of control | dose: 12.5 mg/kg/injection, schedule: Q01DX009 (ip), vehicle: saline 93 % of control | dose: 50.0 mg/kg/injection, schedule: Q04DX003 (ip), vehicle: saline 91 % of control | dose: 100.0 mg/kg/injection, schedule: Q01DX001 (ip), vehicle: saline 97 % of control and 89 % of control and 96 % of control | [7] 87 % of control | [8] 100 % of control and 87 % of control | [2] 98 % of control and 94 % of control | [9] 96 % of control | [10] 96 % of control and 101 % of control and 90 % of control | dose: 400.0 mg/kg/injection, schedule: Q01DX001 (ip), vehicle: saline 100 % of control and 114 % of control | [11] 91 % of control

c1ccc2c(c1)Oc1ccccc1[Te]2
inactive: [17] 100 % of control | [18] 103 % of control | [19] 88 % of control

COc1ccc(CC2=NNC(Cc3ccc(OC)c(OC)c3)=NN2)cc1OC
inactive: [20] 91 % of control | [21] 91 % of control | [22] 93 % of control

CN(CC(=O)C(C(N)=O)c1ccccc1)c1ccccc1 (centres undefined)
inactive: dose: 50.0 mg/kg/injection, schedule: Q01DX001 (ip), vehicle: carboxymethylcellulose (CMC) 96 % of control | dose: 100.0 mg/kg/injection, schedule: Q01DX001 (ip), vehicle: carboxymethylcellulose (CMC) 93 % of control | dose: 200.0 mg/kg/injection, schedule: Q01DX001 (ip), vehicle: carboxymethylcellulose (CMC) 93 % of control | dose: 400.0 mg/kg/injection, schedule: Q01DX001 (ip), vehicle: carboxymethylcellulose (CMC) 102 % of control

Cc1cc2c(-c3ccccc3)c(C(=O)c3ccccc3)c(C(=O)c3ccccc3)c(-c3ccccc3)c2cc1C
inactive: [23] 89 % of control | [24] 89 % of control | [25] 89 % of control

CC(NC(=O)NCCCl)c1cccc([N+](=O)[O-])c1 (centres undefined)
inactive: [12] 94 % of control | [13] 105 % of control | [14] 119 % of control

CCN(CC)CCOc1ccccc1C
inactive: dose: 20.0 mg/kg/injection, schedule: Q01DX009 (ip), vehicle: saline 90 % of control | dose: 40.0 mg/kg/injection, schedule: Q01DX009 (ip), vehicle: saline 88 % of control | dose: 40.0 mg/kg/injection, schedule: Q04DX003 (ip), vehicle: saline 106 % of control | dose: 80.0 mg/kg/injection, schedule: Q01DX009 (ip), vehicle: saline 89 % of control | dose: 80.0 mg/kg/injection, schedule: Q04DX003 (ip), vehicle: saline 100 % of control

O=C1OC(=O)C2CC(Br)C(Br)CC12 (centres undefined)
inactive: [15] 92 % of control | [20] 94 % of control and 102 % of control | [16] 89 % of control | [21] 94 % of control | [26] 89 % of control | [22] 91 % of control and 93 % of control

CC1C2CCC(C2)C1C(=O)O (centres undefined)
inactive: dose: 100.0 mg/kg/injection, schedule: Q01DX009 (ip), vehicle: other 97 % of control | [20] 96 % of control | dose: 200.0 mg/kg/injection, schedule: Q01DX009 (ip), vehicle: other 109 % of control | dose: 400.0 mg/kg/injection, schedule: Q01DX009 (ip), vehicle: other 95 % of control | [22] 87 % of control

CCN(CC)c1ccc(N=Nc2ncn[nH]2)c(O)c1
inactive: [23] 100 % of control | [24] 98 % of control | [25] 88 % of control

CC(C)(C)NC(=O)CCl
inactive: dose: 100.0 mg/kg/injection, schedule: Q01DX001 (ip), vehicle: Klucel (hydroxypropylcellulose) (HPC) 93 % of control | dose: 200.0 mg/kg/injection, schedule: Q01DX001 (ip), vehicle: Klucel (hydroxypropylcellulose) (HPC) 106 % of control

CCC(Cl)COP(=O)(OCC(Cl)CC)C(C(C)C)P(=O)(OCC(Cl)CC)OCC(Cl)CC (centres undefined)
inactive: [17] 96 % of control | [18] 100 % of control | [19] 89 % of control

CCOC(=O)CCC1C(C#N)C2(Cl)C(Cl)=C(Cl)C1(Cl)C2(Cl)Cl (centres undefined)
inactive: dose: 100.0 mg/kg/injection, schedule: Q01DX009 (ip), vehicle: Klucel (hydroxypropylcellulose) (HPC) 98 % of control | [1] 93 % of control | dose: 200.0 mg/kg/injection, schedule: Q01DX009 (ip), vehicle: Klucel (hydroxypropylcellulose) (HPC) 98 % of control | [3] 93 % of control | dose: 400.0 mg/kg/injection, schedule: Q01DX009 (ip), vehicle: Klucel (hydroxypropylcellulose) (HPC) 96 % of control | [4] 92 % of control

CC(CO)(CO)C1CCCCC1
inactive: [5] 93 % of control | [6] 101 % of control | [17] 97 % of control

O=C(c1ccccc1[N+](=O)[O-])C(Br)C(Br)c1ccc2c(c1)OCO2 (centres undefined)
inactive: [15] 97 % of control and 87 % of control | [16] 94 % of control and 95 % of control | [26] 97 % of control
